Tests used:
[1] = tested on: Vancomycin Intermediate Staphylococcus aureus (VISA) strain AR219; conditions: cited from earlier work; note: key: R: resistance; S: sensitive; I: intermediate; NS: nonsusceptible
[2] = tested on: WT S. aureus (ATCC 25923); conditions: cited from earlier work
[3] = tested on: Vancomycin Intermediate Staphylococcus aureus (VISA) strain AR228; conditions: cited from earlier work; note: key: R: resistance; S: sensitive; I: intermediate; NS: nonsusceptible
[4] = tested on: multidrug-resistant Staphylococcus. aureus (MDRSA), including methicillin-resistant S. aureus (MRSA) strains; conditions: cited from earlier work
mammal cell lines = conditions: cited from earlier work
[5] = insoluble as defined herein (less than 10 mg/l); cited from earlier work
S. aureus [6] = conditions: cited from earlier work
Solubility = type: physicochemical
[7] = tested on: Sa #10, mupirocin-resistant MDRSA; test: Killing of drug-resistant bacteria Sa #10; type: cell-based, Staphylococcus aureus; conditions: troponoids formulated as liposomes
S. aureus [8] = conditions: 4×MIC, in vitro; cited from earlier work

Compound	Antimicrobial susceptibility testing pattern (AST) [1]	Antimicrobial susceptibility testing pattern (AST) [2]	Antimicrobial susceptibility testing pattern (AST) [3]	also measured
CO[C@H]1/C=C/O[C@@]2(C)Oc3c(C)c(O)c4c(O)c(c(/C=N/N5CCN(C)CC5)c(O)c4c3C2=O)NC(=O)/C(C)=C\C=C\[C@H](C)[C@H](O)[C@@H](C)[C@@H](O)[C@@H](C)[C@H](OC(C)=O)[C@@H]1C [RIF, Rifampin]	R	S	S	–
CO[C@@]1(NC(=O)Cc2cccs2)C(=O)N2C(C(=O)O)=C(COC(N)=O)CS[C@@H]21 [FOX, Cefoxitin]	R	Neg	R	–
Penicillin	R	–	R	–
CC[C@H]1OC(=O)[C@H](C)[C@@H](O[C@H]2C[C@@](C)(OC)[C@@H](O)[C@H](C)O2)[C@H](C)[C@@H](O[C@@H]2O[C@H](C)C[C@H](N(C)C)[C@H]2O)[C@](C)(O)C[C@@H](C)C(=O)[C@H](C)[C@@H](O)[C@]1(C)O [ERY, Erthromycin]	R	S	R	–
Daptomyxin	–	S	–	–
CN[C@H](CC(C)C)C(=O)N[C@H]1C(=O)N[C@@H](CC(N)=O)C(=O)N[C@H]2C(=O)N[C@H]3C(=O)N[C@H](C(=O)N[C@H](C(=O)O)c4cc(O)cc(O)c4-c4cc3ccc4O)[C@H](O)c3ccc(c(Cl)c3)Oc3cc2cc(c3O[C@@H]2O[C@H](CO)[C@@H](O)[C@H](O)[C@H]2O[C@H]2C[C@](C)(N)[C@H](O)[C@H](C)O2)Oc2ccc(cc2Cl)[C@H]1O [VAN, Vancomycin]	I	S	I	–
CC(=O)NC[C@H]1CN(c2ccc(N3CCOCC3)c(F)c2)C(=O)O1 [LZD, Linezolid]	S	S	S	–
Cc1onc(-c2ccccc2)c1C(=O)N[C@@H]1C(=O)N2[C@@H]1SC(C)(C)[C@@H]2C(=O)O [OXA, Oxacillin]	R	S	R	–
Gentamicin	R	S	S	–
Trimethoprim-sulfamethoxazole [SXT]	S	S	S	–
COc1ccccc1C(=O)Oc1cccccc1=O [compound 285]	–	–	–	inhibition of MDRSA including MRSA strains [4]: can inhibit; CC50 (mammal cell lines): > 100 µM; solubility in water (reportedly) [5]: insoluble; MIC (S. aureus [6]): less than 5 μg/mL; solubility in DMSO (Solubility; DMSO, Gentamicin at 10 mg/mL): can be dissolved; solubility in water (Solubility; water): not quite soluble; killing of mupirocin-resistant MDRSA Sa #10 [7]: can kill; incubation time to completely kill S. aureus (S. aureus [8]): 5 to 8 h
C/C(=C\C(=O)OCCCCCCCCC(=O)O)C[C@@H]1OC[C@H](C[C@@H]2O[C@H]2[C@@H](C)[C@H](C)O)[C@@H](O)[C@H]1O [MUP, Mupirocin]	–	–	R	–

From patent US20220339136A1, “LIPOSOMAL TROPONOID COMPOUND FORMULATIONS” (United States Government As Represented By The Department …, priority 2019, published 2022)
